Measurements published in BindingDB's records for doi:10.7270/Q25M67W6 (n/a, 1992).

Assays:
Serine protease 1 = Serine protease 1 (Homo sapiens, UniProt P07477); assay: Rate constant of deacylation for trypsin
[1] = molecular target: Urokinase-type plasminogen activator (Homo sapiens, UniProt P00749); assay: Rate constant of deacylation for Urokinase-type plasminogen activator
Prothrombin = Prothrombin (Homo sapiens, UniProt P00734); assay: Rate constant of deacylation for thrombin

Chain of Serine protease 1 (P07477 whole entry): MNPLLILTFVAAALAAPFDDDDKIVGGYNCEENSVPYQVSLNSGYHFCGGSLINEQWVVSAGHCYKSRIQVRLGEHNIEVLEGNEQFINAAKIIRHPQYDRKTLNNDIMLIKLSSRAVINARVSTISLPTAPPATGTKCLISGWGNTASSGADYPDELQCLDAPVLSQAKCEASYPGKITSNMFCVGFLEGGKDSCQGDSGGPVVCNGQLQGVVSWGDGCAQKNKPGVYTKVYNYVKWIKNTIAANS

koff (Serine protease 1) | koff [1] | koff (Prothrombin) | SMILES
0.000333 s⁻¹ | – | – | C=C1CC(c2ccc(NC(=N)N)cc2)C/C(=C\I)O1 (stereo not drawn)
8.3e-05 s⁻¹ | 1.3e-05 s⁻¹ | – | C=C1O/C(=C/I)C[C@H](c2ccc(NC(=N)N)cc2)[C@H]1NC(=O)c1ccccc1
3.3e-05 s⁻¹ | 0.00015 s⁻¹ | – | C=C1CC(c2ccc(NC(=N)N)cc2)CC(=C)O1

Continued, compound first:

SMILES | koff (Serine protease 1) | koff [1] | koff (Prothrombin)
N=C(N)NCc1ccc(C2CC/C(=C\I)OC2=O)cc1 (stereo not drawn) | – | – | 0.000217 s⁻¹
C=C1CCC(c2ccc(CNC(=N)N)cc2)C(=O)O1 (stereo not drawn) | – | 0.000733 s⁻¹ | 0.0001 s⁻¹
